Reference: patent EP0326963B1, “Deodorant as well as deodorizing food, drink and seasoning” (priority 1988, dated 1989)
Values joined by “and” are separate entries in the source; they are usually repeats but may differ in a detail not shown here. Equal values may be shown once.

Legend:
ozostomy = format: in vivo, normal persons; details: 3 judges
Method: Following substances generating unpleasant smell were intaken by each panel (3 normal persons) who immediately drinks an aqueous solution of potassium phytinate (105mg/10ml). On contrary thereto, each control panel drinks were drinking water in same amount.
An inspection of ozostmy was carried out from time to time at intervals by 3 judges (to be judged as positive, when 2 or 3 judges feel the unpleasant smell) and by self notification of the experimented person.
Unpleasant smell generating materials : • a) Garlic (10g as grated one), • b) Leek (50g as cooked one), • c) Scallion (50g as pickled one), • d) Onion (100g as grated one), • e) Welsh onion (100g as cooked one), • f) Tobacco (carrying out a functional test by the third party on smokers who smoke more than 50 cigarette per diem), and • g) Alcohol (drink 300ml of Japanese sake, when the stomach of experimented person emties).

urogenous smell [1] = experiment: Test Example 2: smell of fresh urine of cats, potassium phytate solution 20mg/ml; format: in vivo, crossbred mature cats; parameters: key to Deodorizing Effects 1st day / Deodorizing Effects 3rd day / Deodorizing Effects 5th day / Deodorizing Effects 7th day: 1: No change; 2: Weaken; 3: Almost no recognizable smell; details: 20mg/ml solution
Method: (§1) A solution containing potassium phytate in an amount of 20mg/ml (Example 1) was administered to crossbred mature cats (8 heads, body weight of about 5kg) in an amount of 3ml/head/day over 7 days. After 1, 3, 5 and 7 days from the first administration, fresh urine was taken with use of a catheter to immediately check a degree of its smell by 3 judges. […]

urogenous smell [2] = experiment: Test Example 4: smell of fresh urine of cats, cat food containing potassium phytate; format: in vivo, crossbred mature cats; parameters: key to Deodorizing Effects 2nd day / Deodorizing Effects 3rd day / Deodorizing Effects 4th day / Deodorizing Effects 5th day / Deodorizing Effects 7th day: 1: No change; 2: Weaken; 3: Almost no recognizable smell; details: cat food with 0.1mg/g
Method: To a moisture type cat food, potassium phytate was composed in an amount of 0.1mg/g. The cat food was given to crossbred mature cats (2 heads, body weight of about 5kg) in an amount 100g/day over 7 days. After 2, 3, 4, 5 and 7 days from the first administration, fresh urine was taken with use of a catheter to immediately check a degree of its smell by 3 judges. […]

urogenous smell [3] = experiment: Test Example 5: smell of fresh urine of rabbits, potassium phytate in drinking water; format: in vivo; parameters: key to Deodorizing Effects 1st day / Deodorizing Effects 3rd day / Deodorizing Effects 5th day / Deodorizing Effects 7th day / Deodorizing Effects 14th day: 1: No change; 2: Weaken; 3: Almost no recognizable smell
Method: An aqueous solution containing potassium phytate in an amount of 20mg/ml was added to 170 ml of drinking water for each experimented animal (rabbits, 2 heads) in amount of 2ml. The resulting drinking water was given for each day over 14 days, so that it can be […] by the animal in free together with their food. After 1, 3, 5, 7 and 14 days from the first giving of the drinking water containing the compound, fresh urine was taken with use of a catheter to immediately check a degree of its smell by 3 judges. […] While, there was no change in a fragrant smell which may be considered due to plant terpenes contained in their food.

urogenous smell [4] = experiment: Test Example 10: urogenous smell of rats fed high protein cat food; format: in vivo; parameters: key: Judged by 4 stage judgement of ++, +, ± and −; Judged by 4 stage judgement of ++, +, ± and −; Judged by 4 stage judgement of ++, +, ± and −; Judged by 4 stage judgement of ++, +, ± and −
Method: As experimental animal, rats were employed, they had been fed with a cat food of high protein content (30%) to excrete urine with a smell inherent in that of cats. To test group I, potassium phytate was administrated in abdominal cavity at a dose of 3mg/day over 5 days and while, to test group II, the compound was given in the similar to the above but at a dose of 30mg/day. To control group, no compound was given.

urogenous smell [5] = experiment: Test Example 1: smell of fresh urine of cats, potassium phytate solution 8mg/ml; format: in vivo; parameters: key to Deodorizing Effects 1st day / Deodorizing Effects 3rd day / Deodorizing Effects 5th day / Deodorizing Effects 7th day / Deodorizing Effects 14th day: 1: No change; 2: Weaken; 3: Almost no recognizable smell
Method: as §1, with “of 8mg/ml” for “of 20mg/ml”, “to” for “to crossbred mature”, “cats (5” for “cats (8”, “over 14” for “over 7”, “3, 5, 7” for “3, 5”, “and 14” for “and 7”

urogenous smell [6] = experiment: Test Example 6: urogenous smell of hamsters, potassium phytate in drinking water; format: in vivo; details: hamsters (2 pairs); 10mg/kg in drinking water over 14 days; checked on finely cut newspaper used as litter
Method: An aqueous solution containing potassium phytate in an amount of 20mg/ml was prepared. The solution was added to drinking water for each experimented animal (hamsters, 2 pairs) over 14 days, so that each animal can intake the compound in an amount of 10mg/kg.

urogenous smell [7] = experiment: Test Example 3: smell of fresh urine of cats, potassium phytate/lactose powder in food; format: in vivo, crossbred mature cats; parameters: key to Deodorizing Effects 1st day / Deodorizing Effects 3rd day / Deodorizing Effects 5th day / Deodorizing Effects 7th day: 1: No change; 2: Weaken; 3: Almost no recognizable smell
Method: A powder composition was prepared by mixing potassium phytate and lactose, which composition containing the phytate in an amount of 24mg/g. The composition was mixed with a powdered food which was […] by crossbred mature cats (8 heads, body weight of about 5kg) in an amount of 1g/head/day based on the composition over 7 days. After 1, 3, 5 and 7 days from the first administration, fresh urine was taken with use of a catheter to immediately check a degree of its smell by 3 judges. […]

[8] = rabbits, potassium phytate in drinking water
[9] = test group I: 3mg/day in abdominal cavity over 5 days
[10] = test group II: 30mg/day in abdominal cavity over 5 days
[11] = cats, 8mg/ml solution, 3ml/head/day
[12] = cats, powder 24mg/g, 1g/head/day in food

O=P(O)(O)O[C@H]1[C@H](OP(=O)(O)O)[C@@H](OP(=O)(O)O)[C@H](OP(=O)(O)O)[C@@H](OP(=O)(O)O)[C@H]1OP(=O)(O)O [potassium phytate, Potassium phytate]
ozostomy on the test group, first inspection (ozostomy; aqueous solution 105mg/10ml drunk immediately after intake of smell generating material, 1 hour from the intake): not so strong
ozostomy on the test group, second inspection (ozostomy; aqueous solution 105mg/10ml, 3 hours from the intake): apparently decreases
Efficiency 1st day (urogenous smell [1]; cats (8 heads), 3ml/head/day, 1st day): 0/8
Efficiency 3rd day (urogenous smell [1]; cats (8 heads), 3ml/head/day, 3rd day): 0/8
Efficiency 5th day (urogenous smell [1]; cats (8 heads), 3ml/head/day, 5th day): 8/8
Efficiency 7th day (urogenous smell [1]; cats (8 heads), 3ml/head/day, 7th day): 8/8
deodorizing effect of the compound appears (urogenous smell [1]; cats, 3ml/head/day): by third day
urogenous smell disappeared (urogenous smell [1]; cats, 3ml/head/day): on fifth day
Deodorizing Effects 1st day (urogenous smell [1]; individual cat, 3ml/head/day over 7 days, 1st day): 1 (6×) and 2 (2×)
Deodorizing Effects 3rd day (urogenous smell [1]; individual cat, 3ml/head/day over 7 days, 3rd day): 2
Deodorizing Effects 5th day (urogenous smell [1]; individual cat, 3ml/head/day over 7 days, 5th day): 3
Deodorizing Effects 7th day (urogenous smell [1]; individual cat, 3ml/head/day over 7 days, 7th day): 3
Efficiency 2nd day (urogenous smell [2]; cats (2 heads), 100g/day, 2nd day): 0/2
Efficiency 3rd day (urogenous smell [2]; cats (2 heads), 100g/day, 3rd day): 1/2
Efficiency 4th day (urogenous smell [2]; cats (2 heads), 100g/day, 4th day): 2/2
Efficiency 5th day (urogenous smell [2]; cats (2 heads), 100g/day, 5th day): 2/2
Efficiency 7th day (urogenous smell [2]; cats (2 heads), 100g/day, 7th day): 2/2
deodorizing effect of the compound appears (urogenous smell [2]; cats, 100g/day): by third day
urogenous smell disappeared (urogenous smell [2]; cats, 100g/day): on forth day
Deodorizing Effects 2nd day (urogenous smell [2]; individual cat, 100g/day over 7 days, 2nd day): 2
Deodorizing Effects 3rd day (urogenous smell [2]; individual cat, 100g/day, 3rd day): 3 and 2
Deodorizing Effects 4th day (urogenous smell [2]; individual cat, 100g/day, 4th day): 3
Deodorizing Effects 5th day (urogenous smell [2]; individual cat, 100g/day, 5th day): 3
Deodorizing Effects 7th day (urogenous smell [2]; individual cat, 100g/day, 7th day): 3
Deodorizing Effects 1st day (urogenous smell [3]; individual rabbit, 2ml of 20mg/ml solution in 170 ml drinking water per day over 14 days, 1st day): 1
Deodorizing Effects 3rd day (urogenous smell [3]; individual rabbit, 2ml of 20mg/ml solution in 170 ml drinking water per day, 3rd day): 2 (3×) and 1
Deodorizing Effects 5th day (urogenous smell [3]; individual rabbit, 2ml of 20mg/ml solution in 170 ml drinking water per day, 5th day): 3 (3×) and 2
Deodorizing Effects 7th day (urogenous smell [3]; individual rabbit, 2ml of 20mg/ml solution in 170 ml drinking water per day, 7th day): 3
Deodorizing Effects 14th day (urogenous smell [3]; individual rabbit, 2ml of 20mg/ml solution in 170 ml drinking water per day, 14th day): 3
Efficiency 1st day (urogenous smell [3]; rabbits, 2ml of 20mg/ml solution in drinking water per day, 1st day): 0/4
Efficiency 3rd day (urogenous smell [3]; rabbits, 2ml of 20mg/ml solution in drinking water per day, 3rd day): 0/4
Efficiency 5th day (urogenous smell [3]; rabbits, 2ml of 20mg/ml solution in drinking water per day, 5th day): 3/4
Efficiency 7th day (urogenous smell [3]; rabbits, 2ml of 20mg/ml solution in drinking water per day, 7th day): 4/4
Efficiency 14th day (urogenous smell [3]; rabbits, 2ml of 20mg/ml solution in drinking water per day, 14th day): 4/4
almost no unpleasant urogenous smell was notified (urogenous smell [3]; [8]): on fifth day
deodorizing effect of the compound appears (urogenous smell [3]; [8]): by third day
fragrant smell (considered due to plant terpenes contained in their food) (urogenous smell [3]; [8]): no change
Urogenous Smell 3rd day (urogenous smell [4]; [9]): +
Urogenous Smell 6th day (urogenous smell [4]; [9]): ±
Urogenous Smell 9th day (urogenous smell [4]; [9]): +
Urogenous Smell 3rd day (urogenous smell [4]; [10]): ±
Urogenous Smell 6th day (urogenous smell [4]; [10]): ±
Urogenous Smell 9th day (urogenous smell [4]; [10]): +
Efficiency 1st day (urogenous smell [5]; cats (5 heads), 8mg/ml solution, 3ml/head/day, 1st day): 0/5
Efficiency 3rd day (urogenous smell [5]; cats (5 heads), 8mg/ml solution, 3ml/head/day, 3rd day): 0/5
Efficiency 5th day (urogenous smell [5]; cats (5 heads), 8mg/ml solution, 3ml/head/day, 5th day): 4/5
Efficiency 7th day (urogenous smell [5]; cats (5 heads), 8mg/ml solution, 3ml/head/day, 7th day): 5/5
Efficiency 14th day (urogenous smell [5]; cats (5 heads), 8mg/ml solution, 3ml/head/day, 14th day): 5/5
deodorizing effect of the compound appears (urogenous smell [5]; [11]): by third day
urogenous smell was disappeared (urogenous smell [5]; [11]): on fifth day
similar test repeated (urogenous smell [5]; cats, repeated after 10 days from the final administration): results same with said first test
urogenous smell after the final administration (urogenous smell [5]; cats, several days after the final administration): appeared again
Deodorizing Effects 3rd day (urogenous smell [5]; individual cat, 8mg/ml solution, 3ml/head/day over 14 days, 3rd day): 1 and 2 (4×)
Deodorizing Effects 5th day (urogenous smell [5]; individual cat, 8mg/ml solution, 3ml/head/day over 14 days, 5th day): 2 and 3 (4×)
Deodorizing Effects 7th day (urogenous smell [5]; individual cat, 8mg/ml solution, 3ml/head/day over 14 days, 7th day): 3
Deodorizing Effects 14th day (urogenous smell [5]; individual cat, 8mg/ml solution, 3ml/head/day over 14 days, 14th day): 3
Deodorizing Effects 1st day (urogenous smell [5]; individual cat, 8mg/ml solution, 3ml/head/day over 14 days, fresh urine, 3 judges, 1st day): 1
intensity of the urogenous smell (urogenous smell [6]): decreases on several days from the first administration
Efficiency 1st day (urogenous smell [7]; cats (8 heads), powder 24mg/g, 1g/head/day in food, 1st day): 0/8
Efficiency 3rd day (urogenous smell [7]; cats (8 heads), powder 24mg/g, 1g/head/day in food, 3rd day): 2/8
Efficiency 5th day (urogenous smell [7]; cats (8 heads), powder 24mg/g, 1g/head/day in food, 5th day): 8/8
Efficiency 7th day (urogenous smell [7]; cats (8 heads), powder 24mg/g, 1g/head/day in food, 7th day): 8/8
deodorizing effect of the compound appears (urogenous smell [7]; [12]): by third day
urogenous smell disappeared (urogenous smell [7]; [12]): on fifth day
Deodorizing Effects 1st day (urogenous smell [7]; individual cat, powder with lactose 24mg/g, 1g/head/day in food over 7 days, 1st day): 1 (4×) and 2 (4×)
Deodorizing Effects 3rd day (urogenous smell [7]; individual cat, powder with lactose 24mg/g, 1g/head/day in food, 3rd day): 3 (2×) and 2 (6×)
Deodorizing Effects 5th day (urogenous smell [7]; individual cat, powder with lactose 24mg/g, 1g/head/day in food, 5th day): 3
Deodorizing Effects 7th day (urogenous smell [7]; individual cat, powder with lactose 24mg/g, 1g/head/day in food, 7th day): 3
